The text below walks through data of patent US5298621A, “Oligopeptide derivatives of ipoxantine endowed with immunomodulating activity and pharmaceutical compositions containing same” (Sigma-Tau Industrie Farmaceutiche Riunite S.p.A., priority 1990, dated 1994).

The subject of one data set is DTH reaction vs. SRBC. Description: Delayed type hypersensitivity test (DTH) vs. SRBC in mice. As to conditions: 25 mg/kg/day i.p. from day -3 to day +3 respect to the immunization. Type of data set: in vivo. The procedure: Test 6 Assessment of the effect of ST 785 and ST 789 on the delayed type hypersensitivity test (DTH).
Male B6 D2 F1 mice (Charles River, Italy) aged 6, 12 and 16 weeks (8 animals per group) were used.
The compounds were administered i.p., 25 mg/kg/day from day -3 to day +3 (immunization at day 0). Immunization was carried out by s.c. injection in the upper dorsal zone of the animals of 0.2 mL of SRBC (5×10^7 cells/mL).
Four days following the sensitizing injection, the animals were administered the challenge injection to bring about the delayed hypersensibility reaction. 50 μL of SRBC solution (2×10^9 cells/mL) were injected in the left hind foot-pad of the mice. The contralateral foot-pad received an equal volume of PBS. 24 hours after the challenge injection, the animals were sacrificed by cervical dislocation. The legs were amputated and the differences in weight between the left leg (treated with the challenge injection) and the contralateral leg were evaluated.
The mean of weight differences in the legs of the animals of the same experimental group was determined; the differences in the mean values calculated for each experimental group were processed using Student's "t" test (Biostatistics in Pharmacology, loc cit.).
The experimental procedure which was used is described by Miller, T. E. et al, (1973), Immunopotentiation with BCG. Modulation of the response to sheep red blood cells. J. Cancer Inst., 51:1669.

In the next data set the test system is splenocytes. Put plainly: "In vitro-ex vivo" mytogen (PHA)-induced splenocyte proliferation in mice. The procedure: Test 5 Assessment of the "in vitro-ex vivo" effect of ST 733 and ST 789 on the mytogen (PHA)-induced splenocyte proliferation in mice.
Male B6 D2 F1 mice (Charles River, Italy) aged 7-8 weeks (4 animals per group) were used.
PHA (phytohemagglutinine) active on T lymphocytes was used as mytogen. The mytogen was tested at three different concentrations (suboptimal, optimal, superoptimal): 0.5, 2 and 4 mcg/mL/well.
The compounds were administered i.p. 25 mg/kg/day from day -5 to day -1 (spleen excision at day 0).
The experimental procedure was conducted substantially as described by Kirchner et al, "Splenic suppressor macrophages induced in mice by injection of C. parvum", J. Immunol., 1975, 115:1212.
In particular, the cell suspensions obtained from the spleens of the animals of the same group were pooled and the cell concentration was adjusted to 5×10^6 cell/mL.
To volumes of 0.1 mL of each sample, equal volumes of the mytogen preparation were added so as to obtain the previously indicated final concentrations.
Each sample was prepared in triplicate in U-bottom microtiters. A control, to which 0.1 mL of medium was added instead of the mytogen, was also prepared. The control permits the extent of spontaneous proliferation in the absence of stimulation to be assessed.
The samples were incubated at 37° C. for 48 hours and then they were pulsed with 20 μL ^3 H-TdR (25 μCi/mL).
After 18 hours of further incubation, the cells were collected on filters and counted in a beta-counter to evaluate the incorporated radioactivity (in cpm).
The results for each sample are expressed by calculating the value of the area under the curve (AUC) obtained by plotting the values of the incorporated radioactivity (in cpm) versus the three concentrations of mytogen.
In addition to AUC, also the stimulation index (SI) is considered, that is defined as follows: [formula]

Another data set deals with thymocytes. Description: "In vitro-ex vivo" mytogen (PHA, Con A)-induced murine thymocite proliferation. Also on record: species or system mice. As to conditions: 25 mg/kg/day i.p. from day -4 to day -1. The procedure:
Test 7 Assessment of the "in vitro-ex vivo" effect of ST 754, ST 785 and ST 789 on the mytogen (PHA, Con A)-induced murine thymocite proliferation.
The compounds were administered at the dose of 25 mg/kg/day from day -4 to day -1 (thymus excision at day 0). This test was conducted following the procedure described for test 5.
The Stimulation Index (S.I.) is as defined in test 5.

The test system of data set [1] is responders (thymus of C57B1/6) induced by stimulators (spleen of DBA/2). Put plainly: "In vitro-ex vivo" mixed lymphocyte reaction (MLR). On the set-up: species or system mice. As to conditions: 25 mg/kg/day i.p. from day -5 to day -1. The procedure: Test 8 Assessment of the "in vitro-ex vivo" effect of ST 733, ST 754 and ST 789 on the mixed lymphocyte reaction (MLR).
Male DBA/2 mice (Charles River, Italy) aged 8 weeks were used as "stimulators" (4 animals per group); male inbred C57 B1/6 mice (Charles River, Italy) were used as "responders" (4 animals per group).
The compounds were administered i.p. from day -5 to day -1 (thymus excision of "responders" at day 0) 25 mg/kg/day.
The experimental procedure that was used is described by Hudson, L. and Hay, F. C., Practical Immunology, Blackwell Scientific Publication 290 (1980).

The mark [2] stands for this setting: 25 mg/kg/day i.p. from day -5 to day -1.

Structures are written as SMILES.

As for `N=C(N)NCCC[C@H](NC(=O)OCCCCCn1cnc2c(=O)[nH]cnc21)C(=O)O` [ST 789, N-5-(ipoxantin-9-yl) pentyloxycarbonylarginine, reference compound], the “Mean difference in weight (mg ± S.E.) between treated and untreated foot-pads” value in the data set on DTH reaction vs. SRBC is on record as 34.9 ± 0.76 mg. Besides, in the data set on splenocytes (setting [2]), the “Body weight” value turned out to be 23.9 ± 0.1 g, the “Spleen weight” value stood at 87.0 ± 4.5 mg and the “Thymus weight” value was 64.5 ± 4.6 mg. In addition, the “PHA AUC (area under curve, cpm versus three mytogen concentrations)” value in the data set with splenocytes (PHA 0.5, 2 and 4 mcg/mL/well, 25 mg/kg/day i.p. from day -5 to day -1) is 114 × 10^-3. Also, the “PHA I.S. (stimulation index)” value in the data set with splenocytes (PHA-induced proliferation, 25 mg/kg/day i.p. from day -5 to day -1) is reported as 1.30. Moreover, in the data set with splenocytes (PHA, 25 mg/kg/day i.p.), the “mytogen-induced proliferation versus the controls (in words)” value is given as “slight increase”. Further, in the data set with splenocytes (pooled samples, 25 mg/kg/day i.p. from day -5 to day -1), the “Splenocytes No. (× 10^7)” value is reported as 10.0 × 10^7. In the data set with thymocytes, the “Body weight” value is recorded as 22.8 ± 0.5 g and the “Thymus weight” value is recorded as 74.2 ± 4.4 mg. Moreover, in the data set on thymocytes (Con A-induced proliferation), the “Con A AUC (× 10^-3)” value is recorded as 68 × 10^-3 and the “Con A I.S. (stimulation index)” value was found to be 1.10. In the data set with thymocytes (PHA-induced proliferation), the “PHA AUC (area under curve)” value was 3924 and the “PHA I.S. (stimulation index)” value came to 1.40. Besides, the “Thymocytes No. (× 10^7)” value in the data set on thymocytes (pooled samples) is 12.1 × 10^7. In data set [1], the “Body weight” value stood at 22.1 ± 0.5 g, the “Spleen weight” value is recorded as 82.7 ± 3.2 mg, the “Thymus weight” value amounted to 63.0 ± 7.9 mg and the “^3 H-TdR Incorporation (cpm ± S.E.) Non stimulated responders” value was 132.0 cpm. Besides, the “^3 H-TdR Incorporation (cpm ± S.E.) Stimulated responders” value in data set [1] was found to be 9256 cpm. Further, the “Thymocytes No. (× 10^7)” value in data set [1] (pooled samples) is 14.7 × 10^7.
